Test results reported in patent US20200078453A1, “METHODS OF TREATING A MAMMAL SUFFERING FROM OR SUSCEPTIBLE TO AN IMMUNE REACTION TO DRUG TREATMENT” (Idogen AB, priority 2015, published 2020).
Read-outs that look alike come from different tables or passages of the source.

How the values were obtained:
[1] = cited from earlier work
[2] = cited from earlier work; remark: listed apart in the source
[3] = test system: IDO1 gene expression (mRNA level) in THP-1 cells; assay: Induction of IDO1 in THP-1 cells, RT-qPCR; format: cell-based, human; conditions: compound alone, 0.1-10 micromolar
Protocol: THP-1 cells were harvested from appropriate number of T75 flasks. Cells were counted in a Bürker chamber, stained with 0.4% Trypan Blue. The appropriate number of cells for each experiment were transferred to a new tube and centrifuged at 1200 rpm, 5 min at room temperature (RT). The supernatant was discarded and fresh RPMI with 5% FBS were added to get a cell concentration of 2×10^5 cells/mL. The compound was added to the five separate wells in 6-well plates such that five different final concentrations were obtained after adding the cells. A control was added to one well in the 6-well plate to which cells were added. 1×10^6 cells per well were seeded out to achieve a total volume of 5 mL per well. The cells were incubated at 37° C. in 5% CO2 for 96 hours. After 96 hours the assay was stopped and the cells were lysed for the isolation of RNA.
Total RNA was extracted from THP-1 cells using the RNA RNeasy Mini extraction kit (Qiagen), according to the manufacturer's instructions. […]
Following RNA extraction and quantification of gene expression by RT-qPRC, as described above, induction of IDO1 gene expression using Samples 1 to 6 was investigated. […]
Following RNA extraction and quantification of gene expression by RT-qPRC, as described above, induction of IDO1 gene expression using Samples 7 to 12 was investigated.

## O=c1ncccn1[C@@H]1O[C@H](CO)[C@@H](O)[C@H]1O [Zebularine]
[1]; 37° C. in PBS at pH 1.0
  half-life: approximately 44 h
[1]; 37° C. in PBS at pH 7.0
  half-life: ~21.2 days
[2]; at high concentrations
  toxicity: toxic
[2]; in vitro and in vivo, at used concentrations
  cytotoxicity: minimally cytotoxic

## Nc1ncn([C@H]2C[C@H](O)[C@@H](CO)O2)c(=O)n1 [decitabine, 5-aza-2′-deoxycytidine]
[3]
  increase of IDO1 gene expression (maximum): up to 101 fold

## Nc1ncn([C@@H]2O[C@H](CO)[C@@H](O)[C@H]2O)c(=O)n1 [5-azacytidine]
[3]
  increase of IDO1 gene expression (maximum): up to 23 fold
